Experimental data from patent publication US9155329B2, “Flavour compositions” (Givaudan Nederland Services B.V., priority 2005, dated 2015).
Like-named read-outs stand apart in the source and are kept apart here.

Tests used:
[1] = sample B: ice cream (8% vegetable fat) + strawberry flavour + 7 ppm substance, versus A without substance
Description: […] ice cream (8% vegetable fat) samples were prepared: • A: Ice cream (see table 2)+strawberry flavour • B: Ice cream (see table 2)+strawberry flavour+7 ppm N-gluconyl 1-amino-2-methyl-2-propanol (as prepared in Example 5)
The ice creams were tasted by a professional panel.

[2] = Aqueous NaCl solution tasting by a sensory panel; settings: solution B: 0.5% NaCl and 12 ppm substance; solution A (0.5% NaCl alone) described as salty
Description: Two aqueous solutions were prepared: • A. 0.5% NaCl • B. 0.5% NaCl and 12 ppm of N-lactoyl 2-amino-2-methyl-propanol (as prepared in Example 4)

[3] = Carbonated orange flavoured soft drink evaluation; settings: compared to original drink
Description: Two different soft drinks A and B were prepared by adding respectively 40 ppb and 4 ppm of N-lactoyl 2-amino-2-methyl-propanol (as prepared in Example 4) to a commercially available carbonated orange flavoured soft drink.

[4] = Description: Four yoghurt samples were prepared: • A: Yoghurt 0% fat+strawberry flavour+sucralose (25%) 300 ppm • B: Yoghurt 0% fat+strawberry flavour+sucralose (25%) 300 ppm+10 ppm N-gluconyl 2-amino-2-methyl-propanol (as prepared in Example 8) • C: Yoghurt 0% fat+strawberry flavour+4% sugar • D: Yoghurt 0% fat+strawberry flavour+4% sugar+10 ppm N-gluconyl 2-amino-2-methyl-propanol (as prepared in Example 8)
The yoghurts were tasted by a professional panel.

[5] = standard chicken soup dosed to 5 ppm substance, versus reference soup
Description: A standard chicken soup was prepared. The quantity was split in two. One part was kept as reference and the other part was dosed to contain 5 ppm of N-gluconyl 2-amino-2-methyl-propanol (as prepared in Example 8). The soups were tasted by a professional panel.

## CC(C)(O)CNC(=O)[C@H](O)[C@@H](O)[C@H](O)[C@H](O)CO [N-gluconyl 1-amino-2-methyl-2-propanol]
[1]
  taste description: more round and natural taste, very clear sweet enhancement and increased creaminess

## CC(O)C(=O)NC(C)(C)CO (stereo not shown) [N-lactoyl 2-amino-2-methyl-propanol, N-lactoyl 2-amino-2-methylpropanol]
[2]
  taste description: “high impact”, “bouillon”, “meaty”, “salty”, “umami” and “salivating”
[3]; sample A: 40 ppb substance in commercial carbonated orange flavoured soft drink
  taste description: more natural, with a more juicy character than the original
[3]; sample B: 4 ppm substance in commercial carbonated orange flavoured soft drink
  taste description: tingling character typical of the flavour modulating substances of the present invention, which was judged as very pleasant and particularly well suited for the orange flavour

## CC(C)(CO)NC(=O)[C@H](O)[C@@H](O)[C@H](O)[C@H](O)CO [N-gluconyl 2-amino-2-methyl-propanol, N-gluconyl 2-amino-2-methylpropanol]
[4]; sample B: yoghurt 0% fat + strawberry flavour + sucralose (25%) 300 ppm + 10 ppm substance, compared to A without substance
  taste description: fuller more round and natural taste, more sugar sweetness, significantly less bitter metallic aftertaste compared to A
[4]; sample D: yoghurt 0% fat + strawberry flavour + 4% sugar + 10 ppm substance, compared to C without substance
  taste description: fuller more round and natural taste, more intense sweet compared to C
[5]
  taste description: more tasteful, more complete, more body, more fatty
